Assay results taken from patent US10053445B2, “Photocleavable chemical inducers of dimerization (CID) and methods of use” (Children's Medical Center Corporation, priority 2013, dated 2018).

Columns and labels:
[1] = biological target: FK506 Binding Protein (FKBP) (Homo sapiens, UniProt P62942); details: ligand independently; cited from earlier work
[2] = HPLC analysis of Zapalog before and after exposure to 405 nm light; assay type: physicochemical; details: after exposure to 405 nm light
Protocol: Zapalog was synthesized and 10 mg of TLC purified material was determined to be >98% pure by LCMS/HPLC and containing less than 0.1% of the monomeric ligands TMP and SLF.

COS cells = test: peroxisome translocation assay (PEX-RFP-FKBP / DHFR-Kif 1a motor domain); assay type: cell-based
Protocol: Preliminary tests of Zapalog efficacy in COS cells were also carried out, using a peroxisome translocation assay adapted from Kapitein et al., 2010 (13) and illustrated in FIG. 4. The FKBP domain is coupled to RFP and a peroxisome-binding domain (PEX). The DHFR domain is fused to the motor domain of the kinesin Kif 1a. In the absence of a CID to couple these two proteins, the peroxisomes are stationary and located near the nucleus while the motor (visualized by immunocytochemistry) is diffuse in the cytosol (FIG. 4 DMSO). […] In a live-imaging experiment (FIG. 5), the addition of Zapalog initiated clear movement of the peroxisomes in less than 2 minutes. The dispersal of peroxisomes was reversed by exposure to a 405 nm laser. […] 5) the affinity of Zapalog in vivo is high enough to permit the transport of an organelle by a tethered motor. 6) Zapalog is photo-cleavable in vivo by 405 nm light. […] The experiments described herein seek to characterize Zapalog in sufficient detail to enable its use as a photo-cleavable CID. In particular, experiments were designed to determine the kinetics of Zapalog-induced dimerization and cleavage and whether it could be used to recreate a fully functional split kinesin for studies of motor interactions.

COST cells = test: YFP reporter relocalization to outer mitochondrial membrane (YFP-DHFR / Tom20-mCherry-FKBP); assay type: cell-based
From the text: In one set of experiments, Zapalog's efficacy as a dimerizing agent and the efficacy of light-induced cleavage was examined in simple assays of subcellular localization of a YFP reporter adapted from Komatsu et al., (Komatsu et al. Nature Methods 7: 206-8) and illustrated in FIG. 7 (optionally, a GFP or other reporter could have been used). An assay of Zapalog function was developed based on tethering a YFP reporter to the outer mitochondrial membrane of COST cells. In this assay, the YFP reporter was fused to the DHFR domain and, by default, was cytosolic. The FKBP domain was bound to the outer membrane of mitochondria with the N-terminus sequence of Tom20. The FKBP construct was tagged with mCherry. […] Subsequent 405 nm illumination caused immediate (<5 sec) release of YFP back to the cytosol. This redistribution was followed in video microscopy and quantified as a ratio of membrane bound to cytoplasmic fluorescence intensity

mutated FKBP = mutated FKBP (Homo sapiens, UniProt P62942, F37V); details: cited from earlier work
Sequence of mutated FKBP (P62942 2-108 F37V limits assumed): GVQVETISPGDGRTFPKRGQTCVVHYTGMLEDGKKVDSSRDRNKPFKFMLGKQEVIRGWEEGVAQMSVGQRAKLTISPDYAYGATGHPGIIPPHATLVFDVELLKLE

Sequence of FK506 Binding Protein (FKBP) (P62942 whole entry): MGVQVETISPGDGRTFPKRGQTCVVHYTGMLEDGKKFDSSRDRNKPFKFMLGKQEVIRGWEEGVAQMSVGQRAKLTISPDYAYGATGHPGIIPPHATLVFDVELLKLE

CCC(C)(C)C(=O)C(=O)N1CCCCC1C(=O)OC(CCc1ccc(OC)c(OC)c1)c1cccc(N)c1 (stereo not drawn) [SLF]
affinity [1]: ~1 nM

CCC(C)(C)C(=O)C(=O)N1CCCC[C@H]1C(=O)O[C@H](CCc1ccc(OC)c(OC)c1)c1cccc(NC(=O)CCCOc2cc([N+](=O)[O-])c(C(C)OCCOc3c(OC)cc(Cc4cnc(N)nc4N)cc3OC)cc2OC)c1 (stereo partly drawn) [Zapalog]
photolytic cleavage by HPLC [2]: complete photolytic cleavage | binding to DHFR and FKBP domains in vivo (COS cells): can bind to the DHFR and FKBP domains in vivo | heterodimerization (COS cells): can cause heterodimerization | toxicity to cells (COS cells): not toxic to cells | translocation of motor domain to peroxisomes and redistribution of peroxisomes (COS cells; 1 uM, in the dark, COS cells): caused the translocation of the motor domain to the peroxisomes and the redistribution of the peroxisomes to the periphery of the cell | effect of exposure of treated cells to light (COS cells; COS cells, light after CID addition): caused the motor to detach from peroxisomes and resume its diffuse distribution | time to clear movement of peroxisomes after addition (COS cells; live imaging): less than 2 minutes | dispersal of peroxisomes after 405 nm laser (COS cells; live imaging, 405 nm laser): reversed | time to relocalization of YFP to the mitochondrial surface (COST cells; 1 μM in the dark): 4 to 5 min | time to release of YFP back to the cytosol (COST cells; subsequent 405 nm illumination): < 5 s

CCC(C(=O)N1CCCCC1C(=O)O[C@H](CCc1ccc(OC)c(OC)c1)c1cccc(OCC(=O)O)c1)c1cc(OC)c(OC)c(OC)c1 (stereo partly drawn) [SLF′]
Kd (mutated FKBP): 0.094 nM
